Entries after “also recorded” stand apart in the source; their conditions may differ. Like-named read-outs stand apart in the source and are kept apart here. Each block holds one compound with its values, some of them ahead of it.
Columns and labels:
Assay type in all cases: physicochemical
[1] = Heat and vapor stress (vacuum drying, RH jar) with XRPD analysis of the resulting solid form; conditions: for XRPD Results after vapor stress: ~94% RH vapor stress at RT for ~3 days; for Result of vacuum drying (Additional Information): temperature and time not stated in Table V
Protocol: X-ray powder diffraction analyses were performed using an Inel XRG-3000 diffractometer equipped with a CPS (Curved Position Sensitive) detector with a 2θ range of 120°. Real time data were collected using CuKα radiation at a resolution of 0.03° 2θ. The tube voltage and amperage were set to 40 kV and 30 mA, respectively. The monochromator slit was set at 5 mm by 160 μm. […] Samples were prepared into thin-walled glass capillaries for analysis. Each capillary was mounted onto a goniometer head that was motorized to permit spinning of the capillary during data acquisition. The samples were analyzed for 300 seconds. Instrument calibration was performed using a silicon reference standard.
Samples were placed in a RH jar of specified relative humidity at ambient temperature or elevated temperature for a given amount of time. Samples were placed in heating/vacuum oven at specified temperature for thermal stressing.

[2] = Moisture sorption/desorption (VTI SGA-100 Vapor Sorption Analyzer, 5% to 95% RH); conditions: for Hygroscopicity (moisture sorption data are consistent with): 5% to 95% RH; for Weight gain upon increase in relative humidity: from ~5% to ~95% RH; for Weight loss upon decrease in relative humidity: from ~95% to ~5% RH
Protocol: Moisture soption/desorption data were collected on a VTI SGA-100 Vapor Sorption Analyzer. Sorption and desorption data were collected over a range of 5% to 95% relative humidity (RH) at 10% RH intervals under a nitrogen purge. Samples were not dried prior to analysis. Equilibrium criteria used for analysis were less than 0.0100% weight change in 5 min, with a maximum equilibration time of 3 hrs if the weight criterion was not met. Data were not corrected for the initial moisture content of the samples. NaCl and PVP were used as calibration standards.

[3] = Solubility of the HBr salt of Form A in selected solvents, estimated by solvent addition under ambient conditions
Protocol: The solubility of the HBr salt of Form A in selected solvents was estimated by solvent addition under ambient conditions to provide preliminary information for the polymorph screen. […] This material is sparingly soluble in methanol, methanol/chloroform (1:1), and methanol/tetrahydrofuran (˜14-20 mg/mL).

XRPD Results after vapor stress [1]: Disordered A | XRPD Results after vapor stress ([1]; listed as disordered Form A): remained disordered
Compound: Cc1cc(Nc2nc(C(O)c3ccc(F)cc3)nc3ccccc23)n[nH]1 (centres unmarked) [Disordered Form A, (4-fluorophenyl)(4-(5-methyl-1H-pyrazol-3-ylamino)quinazolin-2-yl)methanol]

Hygroscopicity (moisture sorption data are consistent with) [2]: limited hygroscopic material | Weight loss upon equilibration at ~5% RH [2]: ~0.3 wt % | Weight gain upon increase in relative humidity [2]: 1.0 wt % | Weight loss upon decrease in relative humidity [2]: ~1.0 wt % | solubility ([3]; DMF/water (1:1), aqueous with cosolvent or surfactant or cyclodextrin, thermodynamic from solid, solvent DMF/water (1:1), read-out: Solubility): 30000 µg/mL | solubility ([3]; DMF/water (1:2), aqueous with cosolvent or surfactant or cyclodextrin, thermodynamic from solid, solvent DMF/water (1:2), read-out: Solubility): 4000 µg/mL | solubility ([3]; DMF/water (1:4), aqueous with cosolvent or surfactant or cyclodextrin, thermodynamic from solid, solvent DMF/water (1:4), read-out: Solubility): < 2000 µg/mL | solubility ([3]; DMF/water (1:9), aqueous with cosolvent or surfactant or cyclodextrin, thermodynamic from solid, solvent DMF/water (1:9), read-out: Solubility): < 2000 µg/mL | solubility ([3]; MeOH/THF (1:1), organic solvent or mixture, thermodynamic from solid, solvent MeOH/THF (1:1), read-out: Solubility): 14000 to 20000 µg/mL | solubility ([3]; MeOH/chloroform (1:1), organic solvent or mixture, thermodynamic from solid, solvent MeOH/chloroform (1:1), read-out: Solubility): 14000 to 20000 µg/mL | solubility ([3]; acetone, organic solvent or mixture, thermodynamic from solid, solvent Acetone, read-out: Solubility): < 2000 µg/mL | solubility ([3]; acetonitrile, organic solvent or mixture, thermodynamic from solid, solvent ACN, read-out: Solubility): < 2000 µg/mL | solubility ([3]; chloroform, organic solvent or mixture, thermodynamic from solid, solvent Chloroform, read-out: Solubility): < 2000 µg/mL | solubility ([3]; dichloromethane, organic solvent or mixture, thermodynamic from solid, solvent DCM, read-out: Solubility): < 2000 µg/mL | solubility ([3]; dimethylformamide, organic solvent or mixture, thermodynamic from solid, solvent DMF, read-out: Solubility): > 114000 µg/mL | solubility ([3]; ethanol, organic solvent or mixture, thermodynamic from solid, solvent EtOH, read-out: Solubility): 3000 to 7000 µg/mL | solubility ([3]; ethyl acetate, organic solvent or mixture, thermodynamic from solid, solvent EtOAc, read-out: Solubility): < 2000 µg/mL | solubility ([3]; hexafluoroisopropanol, organic solvent or mixture, thermodynamic from solid, solvent HFIPA (hexafluoroisopropanol), read-out: Solubility): > 128000 µg/mL | solubility ([3]; isopropyl alcohol, organic solvent or mixture, thermodynamic from solid, solvent IPA, read-out: Solubility): < 2000 µg/mL | solubility ([3]; methanol, organic solvent or mixture, thermodynamic from solid, solvent MeOH, read-out: Solubility): 14000 to 20000 µg/mL | solubility ([3]; nitromethane, organic solvent or mixture, thermodynamic from solid, solvent Nitromethane, read-out: Solubility): < 2000 µg/mL | solubility ([3]; solvent ACN): <2000 µg/mL | solubility ([3]; solvent Acetone): <2000 µg/mL | solubility ([3]; solvent Chloroform): <2000 µg/mL | solubility ([3]; solvent DCM): <2000 µg/mL | solubility ([3]; solvent DMF): >114000 µg/mL | solubility ([3]; solvent DMF/water (1:4)): <2000 µg/mL | solubility ([3]; solvent DMF/water (1:9)): <2000 µg/mL | solubility ([3]; solvent EtOAc): <2000 µg/mL | solubility ([3]; solvent EtOH): 3000 µg/mL | solubility ([3]; solvent HFIPA (hexafluoroisopropanol)): >128000 µg/mL | solubility ([3]; solvent IPA): <2000 µg/mL | solubility ([3]; solvent MeOH): 18000 µg/mL | solubility ([3]; solvent MeOH/THF (1:1)): 14000 µg/mL | solubility ([3]; solvent MeOH/chloroform (1:1)): 16000 µg/mL | solubility ([3]; solvent Nitromethane): <2000 µg/mL | solubility ([3]; solvent THF): <2000 µg/mL | solubility ([3]; solvent Toluene): <2000 µg/mL | solubility ([3]; solvent Water): <2000 µg/mL | solubility ([3]; t-butanol/water (3:1), organic solvent or mixture, thermodynamic from solid, solvent t-Butanol/water (3:1), read-out: Solubility): 6000 µg/mL | solubility ([3]; tetrahydrofuran, organic solvent or mixture, thermodynamic from solid, solvent THF, read-out: Solubility): < 2000 µg/mL | solubility ([3]; toluene, organic solvent or mixture, thermodynamic from solid, solvent Toluene, read-out: Solubility): < 2000 µg/mL | solubility ([3]; water, thermodynamic from solid, solvent Water, read-out: Solubility): < 2000 µg/mL
Compound: Cc1cc(Nc2nc(C(O)c3ccc(F)cc3)nc3ccccc23)n[nH]1 (centres unmarked) [Form A, (4-fluorophenyl)(4-(5-methyl-1H-pyrazol-3-ylamino)quinazolin-2-yl)methanol]

Result of vacuum drying (Additional Information) [1]: primarily consistent with Form A
Compound: Cc1cc(Nc2nc(C(O)c3ccc(F)cc3)nc3ccccc23)n[nH]1 (centres unmarked) [Form B, (4-fluorophenyl)(4-(5-methyl-1H-pyrazol-3-ylamino)quinazolin-2-yl)methanol]
XRPD Results after vacuum drying ([1]; vacuum at ~60° C. for ~1 day): mixture of Form A with small amount of Form B

Result of vacuum drying (Additional Information) ([1]; listed as C): Forms A and C. | XRPD Results after vacuum drying ([1]; vacuum at ~80° C. for ~1 day): mixture of Forms A and C
Compound: Cc1cc(Nc2nc(C(O)c3ccc(F)cc3)nc3ccccc23)n[nH]1 (centres unmarked) [Form C, (4-fluorophenyl)(4-(5-methyl-1H-pyrazol-3-ylamino)quinazolin-2-yl)methanol]

Result of vacuum drying (Additional Information) ([1]; listed as D): Form A. | XRPD Results after vacuum drying ([1]; vacuum at ~40° C. for ~3 days): consistent with Form A
Compound: Cc1cc(Nc2nc(C(O)c3ccc(F)cc3)nc3ccccc23)n[nH]1 (centres unmarked) [Form D, (4-fluorophenyl)(4-(5-methyl-1H-pyrazol-3-ylamino)quinazolin-2-yl)methanol]

Result of vacuum drying (Additional Information) [1]: remained the same after vacuum | Hygroscopicity (moisture sorption data are consistent with) [2]: limited hygroscopic material | Weight loss upon equilibration at ~5% RH [2]: ~0.2 wt % | Weight gain upon increase in relative humidity [2]: 0.6 wt % | Weight loss upon decrease in relative humidity [2]: ~0.6 wt %
Compound: Cc1cc(Nc2nc(C(O)c3ccc(F)cc3)nc3ccccc23)n[nH]1 (centres unmarked) [Form E, (4-fluorophenyl)(4-(5-methyl-1H-pyrazol-3-ylamino)quinazolin-2-yl)methanol]
XRPD Results after vacuum drying ([1]; vacuum at ~60° C. for ~2 days): No changes were observed in the XRPD pattern; also recorded: physically stable; also recorded: Form E

XRPD Results after vacuum drying ([1]; vacuum at ~60° C. for ~1 day): Form A +
Compound: Cc1cc(Nc2nc(C(O)c3ccc(F)cc3)nc3ccccc23)n[nH]1 (centres unmarked) [Forms A + B, (4-fluorophenyl)(4-(5-methyl-1H-pyrazol-3-ylamino)quinazolin-2-yl)methanol]
XRPD Results after vacuum drying ([1]; vacuum at ~60° C. for ~2 days, listed as Forms A and B): primarily consistent with Form A with a minor amount of Form B
